Source: patent US12180187B2, “1-phenyl-5-azinylpyrazolyl-3-oxyalkyl acids and their use for controlling unwanted plant growth” (BAYER AKTIENGESELLSCHAFT, priority 2019, dated 2024)

Columns and labels:
[1] = system: ECHCG; test: Post-emergence action against ECHCG, 1.28 kg/ha; type: in vivo, Echinochloa crus-galli; settings: dosage 1280 g/ha, visual rating about 3 weeks after treatment vs untreated controls
How it was run: (§1)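 Greenhouse pot test, sandy loam; weeds sprayed post-emergence at one-leaf stage (2–3 weeks after sowing) with WP or EC formulation plus 0.5% additive, 600 l/ha water. Visual rating after about 3 weeks versus untreated controls, 100% = plants dead, 0% = like control.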

[2] = system: POAAN; test: Post-emergence action against POAAN, 1.28 kg/ha; type: in vivo, Poa annua; settings: dosage 1280 g/ha, visual rating about 3 weeks after treatment vs untreated controls
How it was run: as §1

[3] = system: MATIN; test: Pre-emergence action against MATIN, 1280 g/ha; type: in vivo, Tripleurospermum inodorum (Matricaria inodora); settings: scored visually after about 3 weeks vs untreated controls (100% = plants have died)
How it was run: (§2)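 Compound applied as WP or EC in aqueous spray (0.5% additive, 600 L/ha) to the surface of sandy loam covering freshly sown seeds. After about 3 weeks under good greenhouse conditions, damage is given as visual percentage, 100% meaning plant death.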

[4] = system: STEME; test: Pre-emergence action against STEME, 1280 g/ha; type: in vivo, Stellaria media; settings: scored visually after about 3 weeks vs untreated controls (100% = plants have died)
How it was run: as §2

[5] = system: ALOMY; test: Post-emergence action against ALOMY, 1.28 kg/ha; type: in vivo, Alopecurus myosuroides; settings: dosage 1280 g/ha, visual rating about 3 weeks after treatment vs untreated controls
How it was run: as §1

[6] = system: LOLRI; test: Pre-emergence action against LOLRI, 1280 g/ha; type: in vivo, Lolium rigidum; settings: visual scoring after about 3 weeks vs untreated controls, 100% = plants have died, 0% = like control plants
How it was run: as §2

[7] = system: DIGSA; test: Post-emergence action against DIGSA, 1.28 kg/ha; type: in vivo, Digitaria sanguinalis; settings: dosage 1280 g/ha, visual rating about 3 weeks after treatment vs untreated controls
How it was run: as §1

[8] = system: STEME; test: Post-emergence action against STEME, 1.28 kg/ha; type: in vivo, Stellaria media; settings: dosage 1280 g/ha, visual rating about 3 weeks after treatment vs untreated controls (100% = plants died)
Experimental: (§3) • a) Seeds of mono- and dicotyledonous weed plants are placed in plastic pots in sandy loam soil (twin sowing with one species each of mono- or dicotyledonous weed plants per pot), covered with soil and cultivated in a greenhouse under controlled growth conditions. 2 to 3 weeks after sowing, the test plants are treated at the one-leaf stage. The compounds of the invention, formulated in the form of wettable powders (WP) or as emulsion concentrates (EC), are applied to the green parts of the plants as aqueous suspension or emulsion with addition of 0.5% additive at a water application rate equivalent to 600 litres per hectare. After the test plants have been kept in the greenhouse under optimum growth conditions for about 3 weeks, the activity of the preparations is rated visually in comparison to untreated controls. For example, 100% activity=the plants have died, 0% activity=like control plants. As shown by the results, compounds of the general formula (I) of the invention, in post-emergence treatment, have very good herbicidal efficacy (90% to 100% herbicidal action) against harmful plants such as Abutilon theophrasti, Digitaria sanguinalis, Echinochloa crus-galli, Matricaria inodora, Poa annua, at an application rate of 1.28 kg of active substance per hectare.

[9] = system: VERPE; test: Pre-emergence action against VERPE, 1280 g/ha; type: in vivo, Veronica persica; settings: scored visually after about 3 weeks vs untreated controls (100% = plants have died)
How it was run: as §2

[10] = system: DIGSA; test: Pre-emergence action against DIGSA, 1280 g/ha; type: in vivo, Digitaria sanguinalis; settings: visual scoring after about 3 weeks vs untreated controls, 100% = plants have died, 0% = like control plants
How it was run: as §2

[11] = system: VERPE; test: Post-emergence action against VERPE, 1.28 kg/ha; type: in vivo, Veronica persica; settings: dosage 1280 g/ha, visual rating about 3 weeks after treatment vs untreated controls (100% = plants died)
How it was run: as §1

[12] = system: AMARE; test: Post-emergence action against AMARE, 1.28 kg/ha; type: in vivo, Amaranthus retroflexus; settings: dosage 1280 g/ha, visual rating about 3 weeks after treatment vs untreated controls (100% = plants died)
How it was run: as §1

[13] = system: ABUTH; test: Post-emergence action against ABUTH, 1.28 kg/ha; type: in vivo, Abutilon theophrasti; settings: dosage 1280 g/ha, visual rating about 3 weeks after treatment vs untreated controls (100% = plants died)
How it was run: as §1

[14] = system: POAAN; test: Pre-emergence action against POAAN, 1280 g/ha; type: in vivo, Poa annua; settings: visual scoring after about 3 weeks vs untreated controls, 100% = plants have died, 0% = like control plants
How it was run: as §2

[15] = system: AMARE; test: Pre-emergence action against AMARE, 1280 g/ha; type: in vivo, Amaranthus retroflexus; settings: scored visually after about 3 weeks vs untreated controls (100% = plants have died)
How it was run: as §2

[16] = system: LOLRI; test: Post-emergence action against LOLRI, 1.28 kg/ha; type: in vivo, Lolium rigidum; settings: dosage 1280 g/ha, visual rating about 3 weeks after treatment vs untreated controls
Experimental: as §3

[17] = system: SETVI; test: Pre-emergence action against SETVI, 1280 g/ha; type: in vivo, Setaria viridis; settings: visual scoring after about 3 weeks vs untreated controls, 100% = plants have died, 0% = like control plants
How it was run: as §2

[18] = system: ECHCG; test: Pre-emergence action against ECHCG, 1280 g/ha; type: in vivo, Echinochloa crus-galli; settings: visual scoring after about 3 weeks vs untreated controls, 100% = plants have died, 0% = like control plants
How it was run: as §2

[19] = system: MATIN; test: Post-emergence action against MATIN, 1.28 kg/ha; type: in vivo, Tripleurospermum inodorum (Matricaria inodora); settings: dosage 1280 g/ha, visual rating about 3 weeks after treatment vs untreated controls (100% = plants died)
How it was run: as §1

[20] = system: ALOMY; test: Pre-emergence action against ALOMY, 1280 g/ha; type: in vivo, Alopecurus myosuroides; settings: visual scoring after about 3 weeks vs untreated controls, 100% = plants have died, 0% = like control plants
How it was run: as §2

[21] = system: SETVI; test: Post-emergence action against SETVI, 1.28 kg/ha; type: in vivo, Setaria viridis; settings: dosage 1280 g/ha, visual rating about 3 weeks after treatment vs untreated controls
Experimental: as §3

| Compound | Post-emergence action against ECHCG [1] [%] | Post-emergence action against POAAN [2] [%] | Pre-emergence action against MATIN [3] [%] | Pre-emergence action against STEME [4] [%] | Post-emergence action against ALOMY [5] [%] | Pre-emergence action against LOLRI [6] [%] | Post-emergence action against DIGSA [7] [%] | Post-emergence action against STEME [8] [%] | Pre-emergence action against VERPE [9] [%] | Pre-emergence action against DIGSA [10] [%] | Post-emergence action against VERPE [11] [%] | Post-emergence action against AMARE [12] [%] | Post-emergence action against ABUTH [13] [%] | Pre-emergence action against POAAN [14] [%] | Pre-emergence action against AMARE [15] [%] | Post-emergence action against LOLRI [16] [%] | Pre-emergence action against SETVI [17] [%] | Pre-emergence action against ECHCG [18] [%] | Post-emergence action against MATIN [19] [%] | Post-emergence action against SETVI [21] [%] | further results |
| --- | --- | --- | --- | --- | --- | --- | --- | --- | --- | --- | --- | --- | --- | --- | --- | --- | --- | --- | --- | --- | --- |
| O=C(COc1nn(-c2ccccc2F)c(-c2ccc(F)nc2)c1C(F)(F)F)NS(=O)(=O)CC(F)(F)F [Example X-006] | 100 | 100 | 100 | 100 | 100 | 100 | 90 | 100 | 100 | 100 | 90 | 100 | 90 | 100 | 100 | 90 | 100 | 100 | 100 | – | – |
| O=C(O)CNC(=O)COc1nn(-c2ccccc2F)c(-c2ccc(F)nc2)c1C(F)(F)F [Example X-026] | – | 100 | 100 | 100 | 100 | 100 | 100 | 100 | 100 | 100 | 90 | 90 | 90 | 100 | 100 | 90 | 100 | 100 | 100 | 100 | Pre-emergence action against ALOMY [20]: 100% |
| O=C(COc1nn(-c2ccccc2F)c(-c2cncnc2)c1Br)OCc1ccccc1 [VI-002] | 100 | 100 | 90 | 100 | – | 100 | – | 90 | 90 | – | 90 | 90 | 90 | 100 | 100 | 100 | 100 | 100 | 100 | 90 | – |
